The source of these data is the Kinase Knowledgebase extract (Sharma et al. 2016).

This assay deals with MAPK14 (human) (UniProt Q16539). The assay is described as follows: Assessment of MAPK14 Kinase Activity.
Sequence of MAPK14 (human) (Q16539 whole entry, looked up): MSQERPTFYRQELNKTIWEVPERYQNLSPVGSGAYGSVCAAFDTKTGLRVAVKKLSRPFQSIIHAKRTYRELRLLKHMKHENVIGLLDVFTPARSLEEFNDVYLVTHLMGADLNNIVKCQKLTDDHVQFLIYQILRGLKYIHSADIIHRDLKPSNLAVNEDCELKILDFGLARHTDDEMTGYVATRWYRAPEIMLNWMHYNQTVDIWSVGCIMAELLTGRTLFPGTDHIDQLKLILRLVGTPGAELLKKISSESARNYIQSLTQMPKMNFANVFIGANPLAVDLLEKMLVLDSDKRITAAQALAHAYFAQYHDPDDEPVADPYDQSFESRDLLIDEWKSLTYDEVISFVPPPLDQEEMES
Take `CC(=O)Nc1nc(-c2ccccc2Cl)c(-c2ccncc2)s1`: the IC50 (commonly the concentration at which inhibition is half-maximal) came out at 0.26 µM.
Compound `CC(=O)N(C)c1nc(-c2cccc(C)c2)c(-c2ccncc2)s1` displayed a concentration for half-maximal inhibition (IC50) of 0.048 µM.
Take `COc1cccc(-c2nc(NC(C)=O)sc2-c2ccncc2)c1`: the IC50 came out at 0.073 µM. This IC50 is about 1.5-fold higher than that of the compound before.
Turning to `CC(=O)Nc1nc(-c2cccc(F)c2)c(-c2ccncc2)s1`, the IC50 amounted to 0.14 µM.
As for `CS(=O)(=O)c1ccc(-c2nc(-c3ccc(F)cc3)c(-c3ccncc3)s2)cc1`, the IC50 came out at 0.051 µM.
The compound `CC(=O)Nc1nc(-c2ccc(Cl)cc2)c(-c2ccncc2)s1` came in with a 50% inhibitory concentration (IC50) of 0.045 µM.
`Cc1ccc(-c2nc(-c3cccc(C)c3)c(-c3ccncc3)s2)cc1` had an IC50 of 0.041 µM. This IC50 and that of the compound before are within 1.5-fold of each other.
`CC(=O)Nc1nc(-c2cccc(Cl)c2)c(-c2ccncc2)s1` showed an IC50 of 0.043 µM. This IC50 and that of the compound before are within 1.5-fold of each other.
In the case of `Cc1cccc(-c2nc(C(C)(C)C)sc2-c2ccncc2)c1`, the IC50 came to 0.031 µM.
`Cc1cccc(-c2nc(-c3ccc(C(=O)O)cc3)sc2-c2ccncc2)c1` came in with a 50% inhibitory concentration (IC50) of 0.21 µM.
On to `Cc1cccc(-c2nc(-c3ccc(O)cc3)sc2-c2ccncc2)c1`, for which the 50% inhibitory concentration (IC50) stood at 0.0053 µM. Against the preceding compound, the IC50 is about 40-fold lower.
The result for `CC(=O)Nc1nc(-c2cccc(C)c2)c(-c2ccncc2)s1` reads 0.0089 µM; that for `CCc1ccc(-c2nc(-c3cccc(C)c3)c(-c3cc[n+]([O-])cc3)s2)cc1`, 1.7 µM.
Compound `Cc1cccc(-c2nc(-c3ccccc3C)sc2-c2ccncc2)c1` registered an IC50 of 0.069 µM.
`Cc1cccc(-c2nc(-c3cccc(C)c3)c(-c3ccncc3)s2)c1`: the 50% inhibitory concentration (IC50) was found to be 0.074 µM.
Compound `Cc1cccc(-c2nc(-c3ccccc3)sc2-c2ccncc2)c1` came in with an IC50 of 0.2 µM.
On to `Cc1cccc(-c2nc(N)sc2-c2ccncc2)c1`, for which the concentration for half-maximal inhibition (IC50) came to 0.0073 µM.
On to `Cc1cccc(-c2nc(-c3ccc([S+](C)[O-])cc3)sc2-c2ccncc2)c1` (centres undefined), for which the IC50 came to 0.015 µM.
Compound `CSc1ccc(-c2nc(-c3cccc(C)c3)c(-c3ccncc3)s2)cc1` registered a 50% inhibitory concentration (IC50) of 0.022 µM.
For the compound `CC(=O)Nc1nc(-c2ccc(C)cc2)c(-c2ccncc2)s1`, the half-inhibitory concentration (IC50) amounted to 0.076 µM.
For `COc1ccc(-c2nc(NC(C)=O)sc2-c2ccncc2)cc1`, the concentration for half-maximal inhibition (IC50) was 0.074 µM.
The result for `Cc1cccc(-c2nc(C)sc2-c2ccncc2)c1` reads 0.027 µM; that for `CC(=O)Nc1nc(-c2ccccc2C)c(-c2ccncc2)s1`, 0.34 µM.
`COc1ccccc1-c1nc(NC(C)=O)sc1-c1ccncc1` showed an IC50 of 1.3 µM.
